# Assay results: ChEMBL document CHEMBL1201862, “PubChem BioAssay data set” (2004)
# Activity calls are given as the source filed them.
# Assays:
# Trypsin = Trypsin (Sus scrofa, UniProt P00761); assay: porcine trypsin inhibitors, dose response, selectivity assay for Rce1 protease inhibitor project, biochemical, quenched peptide fluorescence, cherry-pick (AID 488789)
# [1] = THP-1 cell cytotoxicity, dose response, cytotoxicity control for non-replicating M. tuberculosis project (AID 489025); assay type: functional
# [2] = HepG2 cell cytotoxicity, dose response, cytotoxicity control for non-replicating M. tuberculosis project (AID 489018); assay type: functional; conditions: Mycobacterium tuberculosis
# cells = assay type: functional
# Leucine aminopeptidase = target: T1, Leucine aminopeptidase (Plasmodium falciparum 3D7, UniProt Q8IL11); assay: P. falciparum M17LAP inhibitors, primary screen, biochemical, fluorogenic H-Leu-NHMec substrate, 1536-well (AID 1619); assay type: functional
# T1 sequence (Q8IL11 whole entry): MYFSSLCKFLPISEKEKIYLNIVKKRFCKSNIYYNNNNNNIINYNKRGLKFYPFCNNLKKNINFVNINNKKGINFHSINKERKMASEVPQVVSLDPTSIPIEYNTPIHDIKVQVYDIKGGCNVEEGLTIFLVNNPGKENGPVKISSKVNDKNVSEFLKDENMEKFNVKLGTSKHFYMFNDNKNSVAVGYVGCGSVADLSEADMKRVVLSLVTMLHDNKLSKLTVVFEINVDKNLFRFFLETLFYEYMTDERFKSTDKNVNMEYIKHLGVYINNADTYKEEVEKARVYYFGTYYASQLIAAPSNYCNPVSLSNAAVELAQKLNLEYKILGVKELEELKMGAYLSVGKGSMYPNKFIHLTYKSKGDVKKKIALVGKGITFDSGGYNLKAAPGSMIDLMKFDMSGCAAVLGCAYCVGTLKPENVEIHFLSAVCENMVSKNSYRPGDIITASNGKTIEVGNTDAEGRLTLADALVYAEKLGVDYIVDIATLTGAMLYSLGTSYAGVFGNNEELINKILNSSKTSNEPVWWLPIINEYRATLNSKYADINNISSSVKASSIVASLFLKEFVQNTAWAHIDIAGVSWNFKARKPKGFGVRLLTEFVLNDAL
# [3] = target: T2, Replicative DNA helicase DnaB (Mycobacterium tuberculosis, UniProt P9WMR3); assay: DnaB intein splicing inhibitors, dose response, biochemical, cell-free fluorescence (AID 449749); assay type: functional
# T2 sequence (P9WMR3 whole entry): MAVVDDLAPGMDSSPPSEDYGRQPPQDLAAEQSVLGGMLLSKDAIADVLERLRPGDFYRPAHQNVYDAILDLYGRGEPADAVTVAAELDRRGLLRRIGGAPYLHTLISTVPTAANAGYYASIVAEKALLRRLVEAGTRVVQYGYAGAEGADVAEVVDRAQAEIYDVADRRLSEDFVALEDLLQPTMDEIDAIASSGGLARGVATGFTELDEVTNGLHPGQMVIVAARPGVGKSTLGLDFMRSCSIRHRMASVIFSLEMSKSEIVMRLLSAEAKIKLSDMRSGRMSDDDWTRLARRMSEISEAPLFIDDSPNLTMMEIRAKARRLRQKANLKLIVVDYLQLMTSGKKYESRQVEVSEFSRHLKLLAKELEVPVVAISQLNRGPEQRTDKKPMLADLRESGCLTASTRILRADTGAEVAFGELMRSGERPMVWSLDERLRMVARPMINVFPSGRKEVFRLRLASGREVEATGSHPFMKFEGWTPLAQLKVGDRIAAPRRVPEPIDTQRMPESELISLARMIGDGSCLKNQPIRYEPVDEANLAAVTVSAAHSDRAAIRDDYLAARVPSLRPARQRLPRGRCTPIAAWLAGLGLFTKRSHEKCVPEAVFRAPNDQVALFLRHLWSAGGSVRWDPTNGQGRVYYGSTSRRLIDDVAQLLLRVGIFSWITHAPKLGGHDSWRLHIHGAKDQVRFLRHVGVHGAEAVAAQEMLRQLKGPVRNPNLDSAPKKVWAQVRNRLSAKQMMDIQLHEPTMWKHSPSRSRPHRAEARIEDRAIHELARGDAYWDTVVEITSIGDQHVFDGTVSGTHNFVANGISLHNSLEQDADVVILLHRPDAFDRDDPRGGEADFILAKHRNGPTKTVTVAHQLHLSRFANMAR
# Protein RecA = target: T3, Protein RecA (Mycobacterium tuberculosis, UniProt P9WHJ3); assay: Fluorescence Cell-Free Homogeneous Dose Retest to Identify Inhibitors of RecA-Intein Splicing Activity. [Related pubchem assays (depositor defined):AID2097, AID2223, AID489010, AID492950]; assay type: functional
# T3 sequence (P9WHJ3 whole entry): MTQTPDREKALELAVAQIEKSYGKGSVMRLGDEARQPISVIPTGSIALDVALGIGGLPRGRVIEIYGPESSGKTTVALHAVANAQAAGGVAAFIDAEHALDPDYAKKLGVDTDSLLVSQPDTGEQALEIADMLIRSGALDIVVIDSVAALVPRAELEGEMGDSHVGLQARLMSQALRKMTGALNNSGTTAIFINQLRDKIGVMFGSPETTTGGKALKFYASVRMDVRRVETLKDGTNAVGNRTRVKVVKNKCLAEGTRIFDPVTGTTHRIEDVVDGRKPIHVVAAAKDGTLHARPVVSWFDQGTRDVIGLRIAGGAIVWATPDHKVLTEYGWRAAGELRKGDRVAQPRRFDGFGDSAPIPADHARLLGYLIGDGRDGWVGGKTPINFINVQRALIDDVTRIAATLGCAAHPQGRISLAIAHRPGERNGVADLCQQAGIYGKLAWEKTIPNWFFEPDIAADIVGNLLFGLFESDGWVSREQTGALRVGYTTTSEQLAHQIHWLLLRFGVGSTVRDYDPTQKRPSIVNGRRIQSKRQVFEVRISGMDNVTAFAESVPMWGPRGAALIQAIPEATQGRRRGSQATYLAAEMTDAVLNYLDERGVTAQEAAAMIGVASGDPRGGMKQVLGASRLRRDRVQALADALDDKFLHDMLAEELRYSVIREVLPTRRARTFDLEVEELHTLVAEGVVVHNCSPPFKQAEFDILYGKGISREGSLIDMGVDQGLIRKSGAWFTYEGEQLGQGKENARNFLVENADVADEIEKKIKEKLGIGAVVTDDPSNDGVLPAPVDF
# SUMO-activating enzyme [4] = target: T4, SUMO-activating enzyme (Homo sapiens, UniProt Q9UBT2); assay: SUMOylation inhibitor hit validation, confirmation, SUMOylation inhibitor project, biochemical, AlphaScreen (AID 2018); assay type: functional
# T4 sequence (Q9UBE0 whole entry): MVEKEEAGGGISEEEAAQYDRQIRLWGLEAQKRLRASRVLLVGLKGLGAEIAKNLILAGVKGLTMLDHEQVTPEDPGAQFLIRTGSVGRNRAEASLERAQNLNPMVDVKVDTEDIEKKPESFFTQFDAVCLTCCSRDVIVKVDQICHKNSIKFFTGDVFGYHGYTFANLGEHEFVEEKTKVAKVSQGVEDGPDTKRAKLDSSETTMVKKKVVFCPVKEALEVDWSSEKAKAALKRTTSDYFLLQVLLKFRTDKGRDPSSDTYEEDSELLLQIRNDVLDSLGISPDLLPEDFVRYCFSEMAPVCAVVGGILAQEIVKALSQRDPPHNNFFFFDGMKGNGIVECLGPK
# T4 sequence (Q9UBT2 whole entry): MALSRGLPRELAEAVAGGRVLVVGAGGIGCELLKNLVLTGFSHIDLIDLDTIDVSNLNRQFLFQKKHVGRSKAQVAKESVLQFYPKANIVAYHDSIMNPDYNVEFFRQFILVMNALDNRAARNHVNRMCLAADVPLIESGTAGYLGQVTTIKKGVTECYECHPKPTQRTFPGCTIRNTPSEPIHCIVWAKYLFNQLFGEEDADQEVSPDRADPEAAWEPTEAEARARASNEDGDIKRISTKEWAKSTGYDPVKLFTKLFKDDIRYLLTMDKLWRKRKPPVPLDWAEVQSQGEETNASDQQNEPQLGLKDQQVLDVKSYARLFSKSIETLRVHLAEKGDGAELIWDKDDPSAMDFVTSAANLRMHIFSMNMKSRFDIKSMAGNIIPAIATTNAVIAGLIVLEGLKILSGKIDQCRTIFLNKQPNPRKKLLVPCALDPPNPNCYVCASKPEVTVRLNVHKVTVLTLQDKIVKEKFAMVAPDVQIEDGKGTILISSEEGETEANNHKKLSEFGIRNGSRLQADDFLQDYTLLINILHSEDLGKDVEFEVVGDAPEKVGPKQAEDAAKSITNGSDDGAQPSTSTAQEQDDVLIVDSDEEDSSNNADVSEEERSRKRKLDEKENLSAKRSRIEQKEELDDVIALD
# SUMO-activating enzyme [5] = target: T4, SUMO-activating enzyme; assay: inhibitors of in vitro SUMOylation cascade, primary screen, biochemical, HTRF, uHTS (AID 2006); assay type: protein-complex assay
# [6] = target: T5, Apoptotic protease-activating factor 1 (Homo sapiens, UniProt O14727); assay type: functional
# T5 sequence (O14727 whole entry): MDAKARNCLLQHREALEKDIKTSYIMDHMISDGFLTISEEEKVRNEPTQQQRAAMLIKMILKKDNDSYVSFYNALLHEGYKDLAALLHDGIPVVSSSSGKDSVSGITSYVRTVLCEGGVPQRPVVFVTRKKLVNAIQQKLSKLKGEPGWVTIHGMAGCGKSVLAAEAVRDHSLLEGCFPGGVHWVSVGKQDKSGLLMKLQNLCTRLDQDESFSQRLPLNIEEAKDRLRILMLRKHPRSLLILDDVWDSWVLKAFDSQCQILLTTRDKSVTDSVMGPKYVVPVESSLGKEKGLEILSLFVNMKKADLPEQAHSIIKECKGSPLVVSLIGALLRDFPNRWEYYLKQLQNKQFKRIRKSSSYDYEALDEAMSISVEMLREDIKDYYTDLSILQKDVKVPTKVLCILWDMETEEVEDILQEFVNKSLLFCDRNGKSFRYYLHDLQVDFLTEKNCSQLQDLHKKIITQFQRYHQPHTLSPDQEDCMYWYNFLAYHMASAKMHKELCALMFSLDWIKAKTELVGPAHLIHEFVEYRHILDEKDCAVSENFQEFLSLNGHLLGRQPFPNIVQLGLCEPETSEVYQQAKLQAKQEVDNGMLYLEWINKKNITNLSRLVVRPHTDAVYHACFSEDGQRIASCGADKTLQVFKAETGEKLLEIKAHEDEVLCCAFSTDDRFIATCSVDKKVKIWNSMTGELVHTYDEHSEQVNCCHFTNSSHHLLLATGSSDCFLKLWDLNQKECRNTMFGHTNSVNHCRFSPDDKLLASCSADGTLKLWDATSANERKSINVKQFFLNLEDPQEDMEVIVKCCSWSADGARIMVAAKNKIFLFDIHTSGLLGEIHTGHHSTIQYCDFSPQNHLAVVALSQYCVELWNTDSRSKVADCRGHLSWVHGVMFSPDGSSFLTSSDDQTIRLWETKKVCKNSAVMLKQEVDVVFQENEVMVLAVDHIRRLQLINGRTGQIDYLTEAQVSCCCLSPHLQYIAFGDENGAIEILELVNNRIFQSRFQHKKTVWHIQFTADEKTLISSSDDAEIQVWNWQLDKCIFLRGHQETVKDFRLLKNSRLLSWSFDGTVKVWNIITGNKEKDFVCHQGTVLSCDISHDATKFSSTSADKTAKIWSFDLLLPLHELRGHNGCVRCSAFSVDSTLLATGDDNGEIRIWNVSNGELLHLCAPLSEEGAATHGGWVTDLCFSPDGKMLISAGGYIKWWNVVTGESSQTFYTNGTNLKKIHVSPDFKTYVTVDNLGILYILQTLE
# Genome polyprotein = Genome polyprotein (dengue virus type 2, UniProt P29990); assay: Dengue-2 NS5 methyltransferase inhibitors, primary screen, biochemical, confirmation dose response (AID 588689); assay type: functional
# [7] = target: T6, Tyrosyl-DNA phosphodiesterase 2 (Homo sapiens, UniProt O95551); assay: human TDP2 enzyme inhibitors, dose response, biochemical, epi absorbance, IC50 (AID 743297)
# T6 sequence (O95551 whole entry): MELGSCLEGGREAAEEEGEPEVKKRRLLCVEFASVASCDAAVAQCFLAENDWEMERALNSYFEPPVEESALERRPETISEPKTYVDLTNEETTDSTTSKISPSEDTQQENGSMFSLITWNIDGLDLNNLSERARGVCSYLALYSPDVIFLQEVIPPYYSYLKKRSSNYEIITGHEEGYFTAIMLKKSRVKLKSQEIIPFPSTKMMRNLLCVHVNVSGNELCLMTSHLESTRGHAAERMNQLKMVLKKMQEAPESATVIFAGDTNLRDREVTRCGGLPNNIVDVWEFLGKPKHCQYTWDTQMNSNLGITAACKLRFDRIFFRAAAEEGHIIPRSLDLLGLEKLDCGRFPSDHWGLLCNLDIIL
# [8] = target: Voltage-dependent T-type calcium channel subunit alpha-1H (Homo sapiens, UniProt O95180); assay type: functional;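 note: channel activity triggered by adding a high calcium stimulation buffer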
# Voltage-dependent T-type calcium channel subunit alpha-1H, sequence (O95180 whole entry): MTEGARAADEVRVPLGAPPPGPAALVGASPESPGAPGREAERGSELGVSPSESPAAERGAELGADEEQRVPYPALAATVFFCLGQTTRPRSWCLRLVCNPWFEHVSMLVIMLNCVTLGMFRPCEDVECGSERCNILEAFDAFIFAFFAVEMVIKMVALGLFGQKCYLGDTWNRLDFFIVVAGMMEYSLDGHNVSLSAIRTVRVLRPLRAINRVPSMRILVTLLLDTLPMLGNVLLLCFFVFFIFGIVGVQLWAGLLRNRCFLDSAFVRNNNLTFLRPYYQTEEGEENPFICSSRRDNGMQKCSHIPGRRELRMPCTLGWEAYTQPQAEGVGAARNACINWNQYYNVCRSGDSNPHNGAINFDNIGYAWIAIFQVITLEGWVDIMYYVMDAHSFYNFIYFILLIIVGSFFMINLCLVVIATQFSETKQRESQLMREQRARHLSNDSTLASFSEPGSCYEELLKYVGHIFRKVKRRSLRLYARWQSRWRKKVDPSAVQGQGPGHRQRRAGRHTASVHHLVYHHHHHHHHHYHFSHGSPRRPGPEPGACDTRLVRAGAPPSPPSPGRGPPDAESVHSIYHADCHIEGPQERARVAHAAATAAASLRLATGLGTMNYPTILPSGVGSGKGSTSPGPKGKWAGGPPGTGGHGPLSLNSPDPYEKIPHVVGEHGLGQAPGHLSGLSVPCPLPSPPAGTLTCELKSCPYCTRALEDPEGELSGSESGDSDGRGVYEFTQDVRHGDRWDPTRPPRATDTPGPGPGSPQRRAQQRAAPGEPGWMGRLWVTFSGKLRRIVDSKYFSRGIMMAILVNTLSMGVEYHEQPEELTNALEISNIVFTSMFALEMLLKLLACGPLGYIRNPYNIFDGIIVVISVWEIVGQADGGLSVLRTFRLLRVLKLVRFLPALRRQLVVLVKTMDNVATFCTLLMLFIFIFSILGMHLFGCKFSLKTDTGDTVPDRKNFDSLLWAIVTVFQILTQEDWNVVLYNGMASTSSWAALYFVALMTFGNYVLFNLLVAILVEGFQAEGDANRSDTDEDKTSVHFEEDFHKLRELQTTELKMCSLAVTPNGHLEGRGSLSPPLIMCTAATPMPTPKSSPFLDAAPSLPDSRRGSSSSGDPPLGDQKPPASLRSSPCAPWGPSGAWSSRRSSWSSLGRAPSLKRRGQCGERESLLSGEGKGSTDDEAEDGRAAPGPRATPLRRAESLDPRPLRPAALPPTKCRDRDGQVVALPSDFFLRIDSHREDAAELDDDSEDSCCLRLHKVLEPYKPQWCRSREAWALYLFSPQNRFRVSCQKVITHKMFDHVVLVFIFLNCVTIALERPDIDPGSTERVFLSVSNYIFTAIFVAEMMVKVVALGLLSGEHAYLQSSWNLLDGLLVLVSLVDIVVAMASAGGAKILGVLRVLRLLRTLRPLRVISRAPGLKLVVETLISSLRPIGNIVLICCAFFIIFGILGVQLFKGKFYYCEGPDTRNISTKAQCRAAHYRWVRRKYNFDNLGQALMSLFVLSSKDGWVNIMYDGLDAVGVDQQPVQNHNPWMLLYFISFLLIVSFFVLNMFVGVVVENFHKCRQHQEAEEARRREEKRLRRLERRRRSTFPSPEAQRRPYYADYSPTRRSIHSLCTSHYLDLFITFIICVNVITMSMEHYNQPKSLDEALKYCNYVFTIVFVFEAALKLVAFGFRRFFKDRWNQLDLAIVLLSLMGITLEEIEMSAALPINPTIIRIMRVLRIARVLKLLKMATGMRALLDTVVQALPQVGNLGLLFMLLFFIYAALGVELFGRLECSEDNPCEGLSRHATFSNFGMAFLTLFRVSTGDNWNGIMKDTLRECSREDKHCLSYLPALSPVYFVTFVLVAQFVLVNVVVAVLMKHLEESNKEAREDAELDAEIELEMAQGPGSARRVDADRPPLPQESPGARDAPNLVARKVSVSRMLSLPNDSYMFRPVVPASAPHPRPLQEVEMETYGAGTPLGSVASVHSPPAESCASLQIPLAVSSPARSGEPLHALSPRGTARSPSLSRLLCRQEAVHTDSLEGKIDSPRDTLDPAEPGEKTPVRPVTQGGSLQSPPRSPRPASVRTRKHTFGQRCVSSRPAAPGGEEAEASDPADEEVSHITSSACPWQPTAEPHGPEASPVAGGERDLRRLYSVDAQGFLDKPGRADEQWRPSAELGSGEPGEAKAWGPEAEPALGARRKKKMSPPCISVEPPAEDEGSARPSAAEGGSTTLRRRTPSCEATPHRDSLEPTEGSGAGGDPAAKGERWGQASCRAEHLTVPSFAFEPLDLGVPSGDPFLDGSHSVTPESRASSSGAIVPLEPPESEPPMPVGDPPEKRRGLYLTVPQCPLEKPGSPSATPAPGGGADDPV
# [9] = target: Eukaryotic translation initiation factor 4H (Homo sapiens, UniProt Q15056); assay: human eIF4H binding inhibitors, primary screen, translation initiation inhibitor project, biochemical, uHTS, fluorescence polarization (AID 2012)
# [10] = target: Polyadenylate-binding protein 1 (Homo sapiens, UniProt P11940); assay: PABP poly(A) RNA binding inhibitors, primary screen, biochemical, fluorescence polarization, uHTS (AID 2014)
# Polyadenylate-binding protein 1, sequence (P11940 whole entry): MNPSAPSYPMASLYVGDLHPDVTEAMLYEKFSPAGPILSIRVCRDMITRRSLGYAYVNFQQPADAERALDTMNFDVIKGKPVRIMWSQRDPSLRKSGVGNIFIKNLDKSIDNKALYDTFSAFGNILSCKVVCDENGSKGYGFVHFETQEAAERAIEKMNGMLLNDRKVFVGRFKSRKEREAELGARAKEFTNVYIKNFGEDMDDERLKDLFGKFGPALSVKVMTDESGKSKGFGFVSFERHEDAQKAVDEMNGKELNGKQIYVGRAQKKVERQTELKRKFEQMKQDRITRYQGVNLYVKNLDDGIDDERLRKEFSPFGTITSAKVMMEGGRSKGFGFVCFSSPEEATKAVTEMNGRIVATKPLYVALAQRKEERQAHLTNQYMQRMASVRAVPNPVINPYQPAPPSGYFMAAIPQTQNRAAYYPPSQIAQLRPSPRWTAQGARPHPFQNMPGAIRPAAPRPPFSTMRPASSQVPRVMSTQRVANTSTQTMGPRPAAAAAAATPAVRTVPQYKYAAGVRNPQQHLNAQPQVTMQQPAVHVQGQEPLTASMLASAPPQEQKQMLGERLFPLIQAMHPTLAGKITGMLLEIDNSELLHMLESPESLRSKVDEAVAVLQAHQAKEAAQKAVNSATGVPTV
# [11] = HEp-2 cell cytotoxicity, dose response, cytotoxicity control for RSV inhibitor project, HTS (AID 2410); assay type: functional; conditions: human respiratory syncytial virus
# [12] = Shn3 3'UTR reporter inhibitors, dose response, cell-based, Clone20 osteoblasts, firefly luciferase, cherry-picked (AID 624132); assay type: functional;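 note: firefly luciferase luminescence from reporter carrying the Shn3 3'UTR in osteoblasts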
# [13] = HepG2 cell cytotoxicity, dose response, cytotoxicity control for Shn3 inhibitor project, CellTiter-Glo, cherry-picked (AID 624134); assay type: functional, cell-based
# [14] = control 3'UTR Renilla luciferase suppression, dose response, counter-screen for Shn3 inhibitor project, cell-based, Clone20-Shn3RL, cherry-picked (AID 624133); assay type: functional
# [15] = M. tuberculosis H37Rv growth inhibitors, H37Rv strain (AID 1626); assay type: functional
# [16] = target: Induced myeloid leukemia cell differentiation protein Mcl-1 (Homo sapiens, UniProt Q07820); assay type: functional
# Induced myeloid leukemia cell differentiation protein Mcl-1, sequence (Q07820 whole entry): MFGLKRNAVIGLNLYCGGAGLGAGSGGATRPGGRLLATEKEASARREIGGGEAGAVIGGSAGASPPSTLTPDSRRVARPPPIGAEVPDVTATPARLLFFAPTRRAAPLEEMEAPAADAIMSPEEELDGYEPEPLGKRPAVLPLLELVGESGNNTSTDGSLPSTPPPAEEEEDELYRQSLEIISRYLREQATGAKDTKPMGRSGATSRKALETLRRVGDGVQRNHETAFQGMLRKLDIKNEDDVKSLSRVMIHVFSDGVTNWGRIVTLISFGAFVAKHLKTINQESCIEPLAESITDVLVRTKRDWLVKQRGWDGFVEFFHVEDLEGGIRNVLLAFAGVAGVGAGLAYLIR
# Trypsin, sequence (P00761 whole entry): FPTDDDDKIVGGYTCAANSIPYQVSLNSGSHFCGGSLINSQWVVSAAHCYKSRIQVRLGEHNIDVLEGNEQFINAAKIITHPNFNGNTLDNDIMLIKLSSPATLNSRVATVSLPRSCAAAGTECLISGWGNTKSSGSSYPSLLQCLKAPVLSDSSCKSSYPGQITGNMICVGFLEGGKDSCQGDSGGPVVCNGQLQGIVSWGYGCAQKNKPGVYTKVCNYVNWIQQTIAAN
smiles,measurement,setting,value
COc1c2ccoc2nc2c(OC)cccc12 [GAMMA-FAGARINE],AC50,Trypsin,9.78 µM (active)
COc1ccc(C(=O)Oc2cccc3cccnc23)cc1S(=O)(=O)N1CCOCC1,CC50,[1],26.6 µM (active)
same,CC50,[2],18 µM (active)
same,IC50,cells,6.24 µM (active)
N#CC1=C(N)Oc2[nH]nc(-c3ccc(F)cc3)c2C1c1ccncc1 (stereo not given),IC50,Leucine aminopeptidase,94.3 µM (active)
same,AC50,[3],7.34 µM (active)
same,EC50,Protein RecA,5.79 µM (active)
COc1cc(C(c2c(C)[nH]n(-c3ccccc3)c2=O)c2c(C)[nH]n(-c3ccccc3)c2=O)cc(OC)c1OC,IC50,SUMO-activating enzyme [4],6.66 µM (active)
same,IC50,SUMO-activating enzyme [5],33.9 µM (active)
same,IC50,[6],24.4 µM (active)
same,IC50,Genome polyprotein,38.3 µM (active)
same,IC50,[7],19.9 µM (inactive)
Cc1cccc(NC(=O)CNc2cc(C)ccc2C)c1,EC50,[8],15.2 µM (active)
COc1ccc(-n2c(SCC(=O)Nc3ccc(C(=O)O)cc3)nnc2-c2cccs2)cc1,IC50,Leucine aminopeptidase,14.5 µM (active)
CCN1CCN(c2nc3ccccc3nc2C(C#N)C(=O)OCc2ccccc2)CC1 (stereo not given),IC50,[9],93.8 µM (active)
same,IC50,[10],44.8 µM (active)
CC1=CC(C)C2C(=O)N(CCC[N+](C)(C)C)C(=O)C2C1 (stereo not given),IC50,[9],97.8 µM (active)
same,IC50,[10],6.94 µM (active)
Cc1cc(/C=C2\C(=N)N3N=C(c4ccco4)SC3=NC2=O)c(C)n1Cc1ccccc1,IC50,SUMO-activating enzyme [4],8.55 µM (active)
same,IC50,SUMO-activating enzyme [5],7.54 µM (active)
CC(C)(C)n1nnnc1C(c1ccc(C(F)(F)F)cc1)N(Cc1ccc(F)cc1)Cc1ccco1 (stereo not given),CC50,[11],10.3 µM (active)
same,EC50,[8],2.84 µM (active)
same,AC50,[12],10.1 µM (active)
same,AC50,[13],40.3 µM (active)
same,AC50,[14],18.8 µM (active)
CC/C(=N\n1nnnc1Nc1ccccc1)c1ccccc1,EC50,[8],5.34 µM (active)
O=C(Nc1ccc(S(=O)(=O)N2CCCCCC2)cc1)c1ccc(Br)o1,EC50,[8],7.13 µM (active)
CCOC(=O)c1ccc(NC(=O)C2C3CCC(C3)C2C(=O)O)cc1 (stereo not given),IC50,Leucine aminopeptidase,20 µM (active)
same,IC50,[15],> 100 µM (active)
COc1cc(C(=O)Nc2ccc3c(c2)C(=O)c2ccccc2C3=O)cc(OC)c1OC,IC50,[16],2.77 µM (active)
